Experimental data as given in patent EP1218402B1 (Dabur Research Foundation, priority 1999, dated 2001).

What was measured:
L132 = assay: Cytotoxicity assay for tumor cells, lung L132; format: cell-based; details: concentration causing 50% cytotoxicity
Excerpt: (§1) The cytotoxicity assays for tumor cells have been described in detail in our application No. 09/040,856 filed in US on March 18, 1998. […] Table - I

PA-1 = assay: Cytotoxicity assay for tumor cells, ovary PA-1; format: cell-based; details: concentration causing 50% cytotoxicity
Excerpt: as §1

ECV304 [1] = assay: MTT assay, inhibition of proliferation of ECV304 endothelial cells (72 hours); format: cell-based, human; details: concentration causing 50% cytotoxicity
Method: 30µl of ECV304 cell suspension (50 x 10^4 cells/ml in RPMI 1640 containing 10% FBS) followed by 150µl of medium was added to the wells of a 96-well tissue culture plate (Nunc, Denmark) and incubated (37°C, 5% CO2) overnight. […] Each concentration was plated in triplicates. 20µl of medium alone was added to control wells. After 72 hours of incubation an MTT assay (Mosmann, 1983) was performed and percentage inhibition in proliferation of treated cells was calculated with respect to control cells.

HT-29 = assay: Cytotoxicity assay for tumor cells, colon HT-29; format: cell-based; details: concentration causing 50% cytotoxicity
Excerpt: as §1

DU145 = assay: Cytotoxicity assay for tumor cells, prostate DU145; format: cell-based; details: concentration causing 50% cytotoxicity
Excerpt: as §1

ECV304 [2] = assay: Tube-like-structure (TLS) formation of ECV304 cells on Matrigel; format: cell-based, human; details: 24 - 48 hours, mean of five fields
Method: Matrigel (70 µl) was placed into each well of a 96-well culture plate at 4°C and was allowed to polymerize by incubation at 37°C for 30 min. ECV304 (1 x 10^4) cells were seeded on the Matrigel in 200 µl DMEM containing 10% FBS. […] Five different phase-contrast microscopic fields (4X) were viewed and total tube area of the tube-like-structures (TLS) measured using Video Pro 32 Image Analysis system. Percent reduction in total tube area was given as the mean of the data from five fields. Percent inhibition of TLS was calculated with reference to Controls(no drug). Table - III

Row | SMILES | Lung L132 (ED50) (L132) | Ovary PA-1 (ED50) (PA-1) | Endothelial ECV304 (ED50) (ECV304 [1]) | Colon HT-29 (ED50) (HT-29) | Prostate DU145 (ED50) (DU145) | % reduction in total tube area at concentration 0.5 µg/ml (ECV304 [2]) | % reduction in total tube area at concentration 2 µg/ml (ECV304 [2]) | % reduction in total tube area at concentration 4 µg/ml (ECV304 [2])
1 | C=C(C)C1CCC2(C(=O)O)CCC3(C)C(CCC4C5(C)CCC(=NNc6ccccc6)C(C)(C)C5CCC43C)C12 (stereo not shown) [MJ353-RS] | 4.5 µg/mL | 5 µg/mL | 2.4 µg/mL | > 10 µg/mL | 6.5 µg/mL |  |  | 
2 | COc1ccc(NNC2CCC3(C)C(CCC4(C)C3CCC3C5C(C(C)C)CCC5(C(=O)O)CCC34C)C2(C)C)cc1 (stereo not shown) [MJ912-RS] | > 4 µg/mL |  | 0.4 µg/mL | 0.35 µg/mL | 8.5 µg/mL |  |  | 
3 | CC(C)C1CCC2(C(=O)O)CCC3(C)C(CCC4C5(C)CCC(OC(=O)c6cc(F)cc(F)c6)C(C)(C)C5CCC43C)C12 (stereo not shown) [MJ935-RS] | 1.2 µg/mL |  | 0.7 µg/mL | > 10 µg/mL | 3.2 µg/mL |  |  | 
4 | CC(C)C1CCC2(C(=O)O)CCC3(C)C(CCC4C5(C)CCC(OC(=O)c6ccc(F)cc6F)C(C)(C)C5CCC43C)C12 (stereo not shown) [MJ937-RS] | 1.1 µg/mL | 1.6 µg/mL | 0.7 µg/mL | 1.7 µg/mL | 2.5 µg/mL | 16.7% | 21% | 21.7%
5 | C=C(C)C1CCC2(C(=O)O)CCC3(C)C(CCC4C5(C)CCC(OC(=O)c6cccc(C(F)(F)F)c6)C(C)(C)C5CCC43C)C12 (stereo not shown) [MJ939-RS] | 2.7 µg/mL | > 4 µg/mL | 0.9 µg/mL | > 10 µg/mL | > 10 µg/mL |  |  | 
6 | CC(C)C1CCC2(C(=O)O)CCC3(C)C(CCC4C5(C)CCC(OC(=O)c6ccccc6C(F)(F)F)C(C)(C)C5CCC43C)C12 (stereo not shown) [MJ943-RS] | 4 µg/mL | > 4 µg/mL | 2.6 µg/mL | > 10 µg/mL | > 4 µg/mL |  |  | 
7 | CC(C)C1CCC2(C(=O)O)CCC3(C)C(CCC4C5(C)CCC(N=Cc6ccc(F)c(F)c6)C(C)(C)C5CCC43C)C12 (stereo not shown) [MJ998-RS] | 2.5 µg/mL | 1.3 µg/mL | 0.35 µg/mL | 4 µg/mL | 2.2 µg/mL | 21.1% | 13.4% | 33.4%
8 | CC(C)C1CCC2(C(=O)O)CCC3(C)C(CCC4C5(C)CCC(N=Cc6ccc(F)cc6F)C(C)(C)C5CCC43C)C12 (stereo not shown) [MJ1065-RS] | 3.4 µg/mL | 1.3 µg/mL | 2.4 µg/mL | 4.9 µg/mL | 2.5 µg/mL | 23.4% | 16.7% | 46.7%
9 | CC(C)C1CCC2(C(=O)O)CCC3(C)C(CCC4C5(C)CCC(=NOCc6ccc([N+](=O)[O-])cc6)C(C)(C)C5CCC43C)C12 (stereo not shown) [MJ1098-RS] | 1.3 µg/mL | 1.6 µg/mL | 0.6 µg/mL | 2.6 µg/mL | 1.5 µg/mL | 15% | 7.5% | 10%
10 | C=C(C)C1CCC2(C(=O)O)CCC3(C)C(CCC4C5(C)CCC(OC(=O)c6ccc(CCCCC)cc6)C(C)(C)C5CCC43C)C12 (stereo not shown) [MJ1104-RS] | 5.9 µg/mL | > 4 µg/mL | 1.9 µg/mL | 3.5 µg/mL | 2 µg/mL |  |  | 
11 | C=C(C)C1CCC2(C(=O)O)CCC3(C)C(CCC4C5(C)CCC(OC(=O)Cc6cc(OC)ccc6OC)C(C)(C)C5CCC43C)C12 (stereo not shown) [MJ1108-RS] | 4.6 µg/mL |  | 1.8 µg/mL | > 10 µg/mL | 1 µg/mL |  |  | 
